The subject of one series is AS283 cells. Briefly: Cell Culture Study II: MTX cytotoxicity, CellTiter-Glo. It counts as cell-based, human. The note with it: TK-112690 1, 10, 100 μM with MTX 0.01-100 μM, 72 hours. The procedure: In this study, AS283 cells were grown in RPMI-1640 supplemented with L-glutamine dipeptide, sodium pyruvate, HEPES, and 10% FBS. AS283 cells were used to seed three 96-well plates with 10,000 cells/well in a total volume of 50 μL. Medium alone wells were seeded 100 μL medium. Plates were incubated overnight. The following day, 25 μL of the TK-112690 and MTX stock solutions were added to the appropriate wells. TK-112690 was added first, followed by MTX in all wells. 25 μL of vehicle was added to TK-112690 alone wells. 25 μL of vehicle and 25 μL medium were added to vehicle control wells, and 50 μL medium was added to cell control wells. Cell viability was measured using CellTiter-Glo and DOX (10 μM) was used as a reference standard. The plates were incubated at 37° C., 5% CO2 for 72 hours then removed from the incubator and placed on the bench at room temperature for 30 min. The plates were not stacked or shaken. […] Luminescence was recorded on TriLux. […]
AS283 cells were grown in RPMI-1640 supplemented with L-glutamine dipeptide, sodium pyruvate, HEPES, and 10% FBS. […] Cell viability was measured using CellTiter-Glo and DOX (10 μM) was used as a reference standard.
The plates were incubated at 37° C., 5% CO2 for 72 hours then removed from the incubator and placed on the bench at room temperature for 30 min. […] Luminescence was recorded on TriLux.
(In ATP-based viability assays light output follows the ATP content of the culture.)

Series [1] can be described thus: Mouse Study VI: plasma uridine and TK-112690 after TK-112690 treatment. In kind it is in vivo, CD-1 mouse. The note with it: 0, 15, 30, 60 and 120 mg/kg ip. The procedure: In this study, CD-1 female mice were injected ip with 120 mg/kg TK-112690 and plasma from the animals analyzed by HPLC using UV detection for TK-112690 and uridine. Concentrations of uridine and TK-112690 in plasma samples collected 0.08, 0.50, 1, 2, 4 or 12 hours post TK-112690 injection were determined by HPLC using UV detection. […] An increase in plasma uridine was noted almost immediately following administration of TK-112690. At 0.5 hour post TK-112690 dose, a 100 μg/mL plasma concentration TK-112690 is associated with a plasma uridine concentration of approximately 2 μg/mL of uridine (baseline uridine concentration approximately 0.5 μg/mL). […]
Plasma uridine concentration was determined by HPLC using UV detectionafter animals were treated with TK-112690 as follows. […] CD-1 female mice were injected ip with a range of TK-112690 doses (0, 15, 30, 60 and 120 mg/kg) and plasma from the animals analyzed for TK-112690 uridine concentrations expected to be elevated through UPase inhibition by TK-112690. Plasma uridine concentrations were determined from plasma samples collected 0.08, 0.50, 1, 2, 4 or 12 hours post TK-112690 injection. […]
The micromolar concentration of plasma uridine was determined by linear equation (y=mx+b) generated from uridine and 5-FU calibration curve. The y value is calculated by taking ratio of peak heights (mm) of uridine and 5-FU. […]

Molecules are shown by their SMILES. Entries after “also recorded” stand apart in the source; their conditions may differ.

Take `Cc1cn2c(nc1=O)O[C@H]1[C@H](O)[C@@H](CO)O[C@H]12` [TK-112690, 2,2′-anhydro-5-methyluridine]: the “effect on antiproliferative activity (cytotoxicity) of MTX” value in the series on AS283 cells is reported as “did not diminish the cytotoxicity of MTX; also recorded: not altered”. In series [1], the “plasma concentrations of TK-112690 vs dose” value is reported as “increased with increasing doses”.

The record behind these values is patent USRE48253E1, “Methotrexate adjuvants to reduce toxicity and methods for using the same” (Tosk, Inc., priority 2008, dated 2020).
